Data from PubChem BioAssay (NCI).
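Method: 48-hour compound exposure of cells in 96-well plates, five concentrations, linear interpolation of endpoints. GI50 is the concentration that inhibits growth by half. TGI is the concentration that stops growth completely.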

Assays:
Assay in all cases: growth of human tumour cells (NCI), 48 h
786-0 renal = test system: 786-0 renal
A498 renal = test system: A498 renal
A549 NSCLC = test system: A549 NSCLC
ACHN renal = test system: ACHN renal
BT-549 breast = test system: BT-549 breast
CAKI-1 renal = test system: CAKI-1 renal
CCRF-CEM leukemia = test system: CCRF-CEM leukemia
COLO 205 colon = test system: COLO 205 colon
DU-145 prostate = test system: DU-145 prostate
EKVX NSCLC = test system: EKVX NSCLC
HCC-2998 colon = test system: HCC-2998 colon
HCT-15 colon = test system: HCT-15 colon
HL-60(TB) leukemia = test system: HL-60(TB) leukemia
HOP-62 NSCLC = test system: HOP-62 NSCLC
HOP-92 NSCLC = test system: HOP-92 NSCLC
HS 578T breast = test system: HS 578T breast
HT29 colon = test system: HT29 colon
IGROV1 ovarian = test system: IGROV1 ovarian
K-562 leukemia = test system: K-562 leukemia
KM12 colon = test system: KM12 colon
LOX IMVI melanoma = test system: LOX IMVI melanoma
M14 melanoma = test system: M14 melanoma
MALME-3M melanoma = test system: MALME-3M melanoma
MCF7 breast = test system: MCF7 breast
MDA-MB-231 breast = test system: MDA-MB-231 breast
MDA-MB-435 = test system: MDA-MB-435
MDA-MB-468 breast = test system: MDA-MB-468 breast
MOLT-4 leukemia = test system: MOLT-4 leukemia
NCI-H226 lung = test system: NCI-H226 lung
NCI-H23 lung = test system: NCI-H23 lung
NCI-H460 lung = test system: NCI-H460 lung
NCI-H522 lung = test system: NCI-H522 lung
NCI/ADR-RES ovarian = test system: NCI/ADR-RES ovarian
OVCAR-3 ovarian = test system: OVCAR-3 ovarian
OVCAR-4 ovarian = test system: OVCAR-4 ovarian
OVCAR-5 ovarian = test system: OVCAR-5 ovarian
OVCAR-8 ovarian = test system: OVCAR-8 ovarian
PC-3 prostate = test system: PC-3 prostate
RPMI-8226 leukemia = test system: RPMI-8226 leukemia
RXF 393 renal = test system: RXF 393 renal
SF-268 CNS = test system: SF-268 CNS
SF-295 CNS = test system: SF-295 CNS
SF-539 CNS = test system: SF-539 CNS
SK-MEL-2 melanoma = test system: SK-MEL-2 melanoma
SK-MEL-28 melanoma = test system: SK-MEL-28 melanoma
SK-MEL-5 melanoma = test system: SK-MEL-5 melanoma
SK-OV-3 ovarian = test system: SK-OV-3 ovarian
SN12C renal = test system: SN12C renal
SNB-19 CNS = test system: SNB-19 CNS
SNB-75 CNS = test system: SNB-75 CNS
SR leukemia = test system: SR leukemia
SW-620 colon = test system: SW-620 colon
T-47D breast = test system: T-47D breast
TK-10 renal = test system: TK-10 renal
U251 CNS = test system: U251 CNS
UACC-257 melanoma = test system: UACC-257 melanoma
UACC-62 melanoma = test system: UACC-62 melanoma
UO-31 renal = test system: UO-31 renal

In the case of `CC1=C2C(=C[C@@](C)(COP(=O)(Oc3ccccc3)Oc3ccccc3)[C@@H]2O)C(=O)[C@@](C)(O)C12CC2`, the GI50 (786-0 renal) is reported as 284 nM, the TGI (786-0 renal) is reported as 857 nM and the GI50 (A498 renal) is reported as 1150 nM. For the same compound, the TGI (A498 renal) was 4090 nM, the GI50 (A549 NSCLC) was 781 nM and the TGI (A549 NSCLC) was 3290 nM. The GI50 (ACHN renal) was 232 nM, the TGI (ACHN renal) was 686 nM and the GI50 (BT-549 breast) was 211 nM. For the same compound, the TGI (BT-549 breast) was 614 nM, the GI50 (CAKI-1 renal) was 289 nM and the TGI (CAKI-1 renal) was 2170 nM. For the same compound, the GI50 (CCRF-CEM leukemia) was 1880 nM, the TGI (CCRF-CEM leukemia) was over 39800 nM and the GI50 (COLO 205 colon) was 530 nM. It also gave a TGI (COLO 205 colon) of 1200 nM, a GI50 (DU-145 prostate) of 332 nM and a TGI (DU-145 prostate) of 1340 nM. For the same compound, the GI50 (EKVX NSCLC) was 641 nM, the TGI (EKVX NSCLC) was 1800 nM and the GI50 (HCC-2998 colon) was 216 nM. The TGI (HCC-2998 colon) was 639 nM, the GI50 (HCT-15 colon) was 208 nM and the TGI (HCT-15 colon) was 875 nM. For the same compound, the GI50 (HL-60(TB) leukemia) was 213 nM, the TGI (HL-60(TB) leukemia) was 1280 nM and the GI50 (HOP-62 NSCLC) was 408 nM. The TGI (HOP-62 NSCLC) was 1280 nM, the GI50 (HOP-92 NSCLC) was 574 nM and the TGI (HOP-92 NSCLC) was 1580 nM. For the same compound, the GI50 (HS 578T breast) was 1010 nM, the TGI (HS 578T breast) was 4460 nM and the GI50 (HT29 colon) was 201 nM. It also gave a TGI (HT29 colon) of 705 nM, a GI50 (IGROV1 ovarian) of 399 nM and a TGI (IGROV1 ovarian) of 1240 nM. The GI50 (K-562 leukemia) was 1560 nM, the TGI (K-562 leukemia) was over 69500 nM and the GI50 (KM12 colon) was 628 nM. For the same compound, the TGI (KM12 colon) was 5820 nM, the GI50 (LOX IMVI melanoma) was 218 nM and the TGI (LOX IMVI melanoma) was 703 nM. For the same compound, the GI50 (M14 melanoma) was 551 nM, the TGI (M14 melanoma) was 1310 nM and the GI50 (MALME-3M melanoma) was 382 nM. The TGI (MALME-3M melanoma) was 1000 nM, the GI50 (MCF7 breast) was 141 nM and the TGI (MCF7 breast) was 4690 nM. The GI50 (MDA-MB-231 breast) was 351 nM, the TGI (MDA-MB-231 breast) was 1030 nM and the GI50 (MDA-MB-435) was 637 nM. It also gave a TGI (MDA-MB-435) of 2060 nM, a GI50 (MDA-MB-468 breast) of 147 nM and a TGI (MDA-MB-468 breast) of 503 nM. The GI50 (MOLT-4 leukemia) was 439 nM, the TGI (MOLT-4 leukemia) was 14600 nM and the GI50 (NCI-H226 lung) was 723 nM. It also gave a TGI (NCI-H226 lung) of 3840 nM, a GI50 (NCI-H23 lung) of 158 nM and a TGI (NCI-H23 lung) of 384 nM. The GI50 (NCI-H460 lung) was 234 nM, the TGI (NCI-H460 lung) was 744 nM and the GI50 (NCI-H522 lung) was 223 nM. For the same compound, the TGI (NCI-H522 lung) was 655 nM, the GI50 (NCI/ADR-RES ovarian) was 236 nM and the TGI (NCI/ADR-RES ovarian) was 778 nM. The GI50 (OVCAR-3 ovarian) was 286 nM, the TGI (OVCAR-3 ovarian) was 1080 nM and the GI50 (OVCAR-4 ovarian) was 355 nM. For the same compound, the TGI (OVCAR-4 ovarian) was 1470 nM, the GI50 (OVCAR-5 ovarian) was 359 nM and the TGI (OVCAR-5 ovarian) was 1340 nM. For the same compound, the GI50 (OVCAR-8 ovarian) was 286 nM, the TGI (OVCAR-8 ovarian) was 1090 nM and the GI50 (PC-3 prostate) was 397 nM. For the same compound, the TGI (PC-3 prostate) was 2340 nM, the GI50 (RPMI-8226 leukemia) was 4560 nM and the TGI (RPMI-8226 leukemia) was 38900 nM. The GI50 (RXF 393 renal) was 188 nM, the TGI (RXF 393 renal) was 493 nM and the GI50 (SF-268 CNS) was 350 nM. The TGI (SF-268 CNS) was 1500 nM, the GI50 (SF-295 CNS) was 294 nM and the TGI (SF-295 CNS) was 1230 nM. The GI50 (SF-539 CNS) was 327 nM, the TGI (SF-539 CNS) was 886 nM and the GI50 (SK-MEL-2 melanoma) was 246 nM. The TGI (SK-MEL-2 melanoma) was 596 nM, the GI50 (SK-MEL-28 melanoma) was 681 nM and the TGI (SK-MEL-28 melanoma) was 1690 nM. It also gave a GI50 (SK-MEL-5 melanoma) of 219 nM, a TGI (SK-MEL-5 melanoma) of 609 nM and a GI50 (SK-OV-3 ovarian) of 357 nM. The TGI (SK-OV-3 ovarian) was 1310 nM, the GI50 (SN12C renal) was 521 nM and the TGI (SN12C renal) was 1550 nM. The GI50 (SNB-19 CNS) was 630 nM, the TGI (SNB-19 CNS) was 4930 nM and the GI50 (SNB-75 CNS) was 477 nM. It also gave a TGI (SNB-75 CNS) of 1270 nM, a GI50 (SR leukemia) of 402 nM and a TGI (SR leukemia) of 25100 nM. It also gave a GI50 (SW-620 colon) of 1700 nM, a TGI (SW-620 colon) of 18300 nM and a GI50 (T-47D breast) of 946 nM. The TGI (T-47D breast) was 5190 nM, the GI50 (TK-10 renal) was 854 nM and the TGI (TK-10 renal) was 3090 nM. The GI50 (U251 CNS) was 249 nM, the TGI (U251 CNS) was 1360 nM and the GI50 (UACC-257 melanoma) was 792 nM. The TGI (UACC-257 melanoma) was 2310 nM, the GI50 (UACC-62 melanoma) was 312 nM and the TGI (UACC-62 melanoma) was 804 nM. It also gave a GI50 (UO-31 renal) of 460 nM and a TGI (UO-31 renal) of 1270 nM.
